This is an account of results in patent publication US9809598B2 (Merck Patent GmbH, priority 2014, dated 2017).

Each structure is given as a SMILES string. pEC50: −log10 of the molar value. Values after ≈ are worked out from the molar mass of the structure shown. Where only a bound is given, the exact number is not on record here.

The target of one data set is Tankyrase. As to conditions: as reported in the cited publication / patent application; read-out: cellular assay: EC50; cited from earlier work.
The nature of another data set: Solubility pH 7.4. The data set is classed as physicochemical. As to conditions: pH 7.4, aqueous buffer.
The next data set addresses T1, PARP-1 (Homo sapiens, UniProt P09874).
T1 construct: purchased Enzo Life Sciences GmbH, Lörrach, Germany
The data set is described as follows: PARP-1 autoparsylation assay (HTRF). The data set is classed as biochemical. The settings on record: His-tagged Parp-1, autoparsylation HTRF. The procedure, abridged:
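HTRF emission ratio reports biotin-ADP-ribose self-transfer onto His-tagged PARP-1, with biotinylated NAD/NAD as co-substrate, sensed via cryptate anti-His and Xlent-streptavidin.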
A general note: Time-resolved FRET reads energy transfer from a long-lived donor to a nearby acceptor.

A further data set has as its target T2, TNKS2 (Homo sapiens, UniProt Q9H2K2).
T2 construct: GST-tagged Tnks-2 (873-1166 aa, prepared in-house); made in house
Put plainly: TNKS2 activity ELISA (autoparsylation assay). The data set is classed as biochemical. As to conditions: GST-tagged Tnks-2 (873-1166 aa); read-out: IC50 [M] TNKS2 ELISA. In a few lines:
(§1)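 Autoparsylation ELISA: biotinylated NAD serves as co-substrate for plate-bound GST-TNKS1/TNKS2, incubated with test compounds. Readout is HRP luminescence after streptavidin-HRP binding, referenced to the no-inhibitor reaction, from which IC50 values are derived.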
(In general: In an ELISA, binding on a coated surface is turned into a signal by an enzyme label.)

Data set [1] in a line: Microsomal stability (intrinsic clearance), mouse liver microsomes. Type of data set: in vitro ADME. The settings on record: pH 7.4. The text has this:
(§2) Test Method Microsomal Stability (Intrinsic Clearance)
(§3) A microsomal stability assay is used to measure in vitro clearance (Clint). The assay involves measuring the rate of disappearance of a compound due to its intrinsic attitude to be metabolized (“intrinsic” meaning that the disappearance is not affected by other properties like permeability, binding etc. that play a role when quantifying in vivo clearance). The microsomal stability (intrinsic clearance, Clint) and thus metabolic stability is generally given as μl/min/mg protein. It can be visualized as the volume of solution that 1 mg of microsomes is able to clear of the compound in one minute.
(§4) A Tecan Genesis workstation (RSP 150/8) was used for to perform the microsomal incubations. Analysis was carried out using a Waters ACQUITY UPLC system coupled to an ABSciex API3000 mass spectrometer. Data analysis was performed using Assay Explorer (Symyx).
(§5) Chemicals • Potassium phosphate buffer: 0.05 M potassium phosphate buffer pH 7.4 containing 1 mM MgCl2 • NADPH (nicotinamide adenine dinucleotide phosphate): 22.5 mg NADPH-Na4 in 1.8 ml potassium phosphate buffer • Acetonitrile: 50 Vol % acetonitrile (1 volume acetonitrile, 1 volume water) • DMSO: 20 Vol % DMSO in water • Stock solution of 20 mg/ml human or mouse liver microsomes (protein)/ml in phosphate buffer
(§6) Stock solution of 10 mM compound in 100% DMSO
(Microsomes from liver hold many membrane-bound enzymes, among them those of drug oxidation.)

The next data set has as its target T3, TNKS1 (Homo sapiens, UniProt O95271).
T3 construct: GST-tagged Tnks-1 (1023-1327 aa, prepared in-house); made in house
Put plainly: TNKS1 activity ELISA (autoparsylation assay). The data set is classed as biochemical. As to conditions: GST-tagged Tnks-1 (1023-1327 aa). The procedure, abridged: as §1

The subject of a further data set is Tankyrases. The settings on record: read-out: EC50 [M] TNKS cellular assay; DLD1 cells, 24 hours, Axin2 increase.
Data set [2] is described as follows: Microsomal stability (intrinsic clearance), human liver microsomes. As to conditions: pH 7.4. Type of data set: in vitro ADME.
From the text: as §2, §3, §4, §5, §6

The next data set has as its system DLD-1-cancer cells. The settings on record: Huang et al., 2009; Nature; cited from earlier work.

T1 sequence (P09874 whole entry): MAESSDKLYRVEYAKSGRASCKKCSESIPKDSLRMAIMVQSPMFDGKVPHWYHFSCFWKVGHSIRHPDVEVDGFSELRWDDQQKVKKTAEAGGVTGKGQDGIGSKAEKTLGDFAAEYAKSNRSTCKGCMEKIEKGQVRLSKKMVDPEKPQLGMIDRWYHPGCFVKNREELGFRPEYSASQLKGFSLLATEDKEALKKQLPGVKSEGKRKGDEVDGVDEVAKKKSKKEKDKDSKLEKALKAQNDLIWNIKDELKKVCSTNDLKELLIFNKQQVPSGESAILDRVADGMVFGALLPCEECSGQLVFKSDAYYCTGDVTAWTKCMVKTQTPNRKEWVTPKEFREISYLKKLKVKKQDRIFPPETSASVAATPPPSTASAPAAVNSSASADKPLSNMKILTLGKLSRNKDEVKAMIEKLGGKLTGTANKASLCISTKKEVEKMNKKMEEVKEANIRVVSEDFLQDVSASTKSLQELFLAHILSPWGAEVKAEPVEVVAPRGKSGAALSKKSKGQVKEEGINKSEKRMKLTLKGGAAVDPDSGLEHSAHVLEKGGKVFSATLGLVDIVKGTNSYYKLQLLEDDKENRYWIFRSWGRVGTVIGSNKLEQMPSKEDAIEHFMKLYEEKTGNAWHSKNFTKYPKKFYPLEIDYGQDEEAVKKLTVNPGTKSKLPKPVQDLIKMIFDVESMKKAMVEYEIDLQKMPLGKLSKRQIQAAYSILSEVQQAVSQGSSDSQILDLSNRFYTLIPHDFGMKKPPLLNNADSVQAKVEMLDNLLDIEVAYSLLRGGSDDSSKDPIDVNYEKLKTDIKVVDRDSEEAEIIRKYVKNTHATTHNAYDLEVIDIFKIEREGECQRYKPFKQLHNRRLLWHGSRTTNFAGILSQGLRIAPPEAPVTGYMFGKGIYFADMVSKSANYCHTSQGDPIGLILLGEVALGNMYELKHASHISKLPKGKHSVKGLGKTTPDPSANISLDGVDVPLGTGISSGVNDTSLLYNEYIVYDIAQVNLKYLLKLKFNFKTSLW
T2 sequence (Q9H2K2 873-1166): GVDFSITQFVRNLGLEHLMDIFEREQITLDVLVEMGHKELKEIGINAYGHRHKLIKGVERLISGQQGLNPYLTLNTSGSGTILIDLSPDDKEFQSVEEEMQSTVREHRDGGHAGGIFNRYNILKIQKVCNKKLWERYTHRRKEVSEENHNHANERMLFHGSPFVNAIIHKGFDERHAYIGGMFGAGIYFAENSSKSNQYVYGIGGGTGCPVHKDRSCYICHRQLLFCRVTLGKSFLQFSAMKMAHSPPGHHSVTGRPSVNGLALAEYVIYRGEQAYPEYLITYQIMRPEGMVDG
T3 sequence (O95271 1023-1327): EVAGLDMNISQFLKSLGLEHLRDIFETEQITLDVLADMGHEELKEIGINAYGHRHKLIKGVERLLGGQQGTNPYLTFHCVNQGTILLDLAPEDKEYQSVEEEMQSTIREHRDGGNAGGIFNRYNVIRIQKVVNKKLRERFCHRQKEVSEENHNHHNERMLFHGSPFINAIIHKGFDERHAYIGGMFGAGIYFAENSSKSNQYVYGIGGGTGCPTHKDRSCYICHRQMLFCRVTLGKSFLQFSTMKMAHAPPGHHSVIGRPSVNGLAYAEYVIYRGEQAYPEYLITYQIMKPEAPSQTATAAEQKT
Protocol for Tankyrases: Measurement of Cellular Inhibition of Tankyrase
Cells of the colon carcinoma cell line DLD1 are plated in 96 well plates with 1.5×10^4 cells per well. Next day, cells are treated with a serial dilution of test compound in seven steps as triplicates with a final DMSO concentration of 0.3%. […] The amount of isolated Axin2 protein is determined in a Luminex^200 machine (Luminex Corporation) according to the manufacturer's instruction by counting 100 events per well. […] As controls cells are treated with solvent alone (neutral control) and with a Tankyrase reference inhibitor IWR-2 (3E−06 M) which refers as control for maximum increase of Axin2. For analysis, the obtained data are normalized against the untreated solvent control and fitted for determination of the EC50 values using the Assay Explorer software (Accelrys).

Take `COc1ccc(C(=O)C2CCN(CC(=O)N(Cc3nc4c(c(=O)[nH]3)COCC4)CC3CC3)CC2)cc1`: the pEC50 (commonly −log10 of the EC50, conventionally taken in molar units) on Tankyrase was 7.46.

Regarding `Cc1ccc2c(=O)[nH]c(CCCC(=O)N3CCC(C(=O)c4cnn(C)c4)CC3)nn12` [Compound C157, 7-Methyl-2-{4-[4-(1-methyl-1H-pyrazole-4-carbonyl)-piperidin-1-yl]-4-oxo-butyl}-3H-pyrrolo[2,1-f][1,2,4]triazin-4-one], the solubility (as a rule, the dissolved amount per volume that the medium holds) in “Solubility pH 7.4” amounted to 272 µg/mL (≈ 663 µM). Further, the IC50 (in general, the point on the concentration scale where inhibition reaches its midpoint) was 860 nM against PARP-1, 2.6e-10 M on TNKS2 and 0.31 nM against TNKS1. Also, the figures for the microsomal CLint in data set [1] and in data set [2] were 46 µL/min/mg and 22 µL/min/mg, respectively. For the same molecule, the EC50 (as a rule, the midpoint of the concentration-response curve) with Tankyrases turned out to be 2.7e-09 M.

In “Solubility pH 7.4”, `Cn1cc(C(=O)C2CCN(C(=O)CCCc3nn4cc(F)cc4c(=O)[nH]3)CC2)cn1` [Compound C179, 6-Fluoro-2-{4-[4-(1-methyl-1H-pyrazole-4-carbonyl)-piperidin-1-yl]-4-oxo-butyl}-3H-pyrrolo[2,1-f][1,2,4]triazin-4-one] returned a solubility of 58 µg/mL (≈ 140 µM). For the same molecule, the values for the IC50 at PARP-1, on TNKS2 and against TNKS1 were 11000 nM, 1.1e-09 M and 0.52 nM, respectively. In addition, the microsomal CLint – broadly, a measure of how fast metabolising enzymes remove a compound, apart from limits set by blood flow – in data set [1] came to 29 µL/min/mg; in data set [2] it was 11 µL/min/mg. The EC50 with Tankyrases is 1.7e-08 M.

Consider `COc1ccc(C(=O)C2CCN(C(=O)CCCc3nc4c(cnn4C)c(=O)[nH]3)CC2)cn1` [Compound C43, 6-{4-[4-(6-Methoxy-pyridine-3-carbonyl)-piperidin-1-yl]-4-oxo-butyl}-1-methyl-1,5-dihydro-pyrazolo[3,4-d]pyrimidin-4-one], for which the solubility in the data set “Solubility pH 7.4” came out at 207 µg/mL (≈ 472 µM). Also, the values for the IC50 against PARP-1, on TNKS2 and against TNKS1 were 18000 nM, 3.5e-10 M and 0.52 nM, respectively. Also, the microsomal CLint in data set [1] stood at 36 µL/min/mg; in [2], 15 µL/min/mg. Besides, in the data set with Tankyrases, the EC50 came to 4.3e-09 M.

In “Solubility pH 7.4”, `COc1ccc(C(=O)C2CCN(C(=O)CCCc3nc4c(c(=O)[nH]3)COCC4)CC2)cc1` [Compound C52, 2-{4-[4-(4-Methoxy-benzoyl)-piperidin-1-yl]-4-oxo-butyl}-3,5,7,8-tetrahydro-pyrano[4,3-d]pyrimidin-4-one] returned a solubility of 868 µg/mL (≈ 1970 µM). The IC50 against PARP-1 worked out at 1900 nM; at TNKS2 it was 4.8e-10 M; against TNKS1 it was 1.4 nM. Also, the microsomal CLint in [1] and in [2] was under 10 µL/min/mg throughout. Besides, in the data set on Tankyrases, the EC50 came to 4.6e-09 M.

The molecule `Cn1ncc2c(=O)[nH]c(CCCC(=O)N3CCC(c4cnc(N)c(-c5ncccn5)c4)CC3)nc21` [Compound C45, 6-[4-(6-Amino-5-pyrimidin-2-yl-3′,4′,5′,6′-tetrahydro-2′H-[3,4′]bipyridinyl-1′-yl)-4-oxo-butyl]-1-methyl-1,5-dihydro-pyrazolo[3,4-d]pyrimidin-4-one] yielded a solubility in “Solubility pH 7.4” of 42 µg/mL (≈ 88.7 µM). Also, the IC50 on PARP-1 is 3800 nM; at TNKS2, 1.9e-10 M; at TNKS1, 0.26 nM. For the same molecule, the results for the microsomal CLint in data set [1] and in [2] were 62 µL/min/mg and 25 µL/min/mg, respectively. Moreover, the EC50 with Tankyrases was found to be 4.9e-10 M.

As for `COc1ccc(C(=O)C2CCN(C(=O)CCCc3nc4c(c(=O)[nH]3)COCC4)CC2)cc1C` [Compound C199, 2-{4-[4-(4-Methoxy-3-methyl-benzoyl)-piperidin-1-yl]-4-oxo-butyl}-3,5,7,8-tetrahydro-pyrano[4,3-d]pyrimidin-4-one], in the data set “Solubility pH 7.4”, the solubility came out at 585 µg/mL (≈ 1290 µM). The IC50 at PARP-1 is 2200 nM; at TNKS2, 2.2e-10 M; against TNKS1, 0.27 nM. The results for the microsomal CLint in [1] and in data set [2] were 44 µL/min/mg and 12 µL/min/mg, respectively. For the same molecule, in the data set on Tankyrases, the EC50 was determined as 3.3e-09 M.

As for `COc1ccc(C(=O)C2CCN(C(=O)CCCc3nn4cccc4c(=O)[nH]3)CC2)cn1` [Compound C137, 2-{4-[4-(6-Methoxy-pyridine-3-carbonyl)-piperidin-1-yl]-4-oxo-butyl}-3H-pyrrolo[2,1-f][1,2,4]triazin-4-one], the concentration in solution in the data set “Solubility pH 7.4” (solubility) was 70 µg/mL (≈ 165 µM). The IC50 on PARP-1 worked out at 21000 nM; at TNKS2, 1e-09 M; against TNKS1 it was 1.5 nM. Moreover, the microsomal CLint in data set [1] turned out to be 78 µL/min/mg; in data set [2] it was 10 µL/min/mg. The EC50 in the data set with Tankyrases came to 1.9e-08 M.

`Oc1nc(-c2ccc(C(F)(F)F)cc2)nc2c1CSCC2` [XAV939]: in the data set with DLD-1-cancer cells, the “growth of DLD-1-cancer cells” value was “inhibits growth”.

For the molecule `COc1ccccc1NC(=O)c1ccc(NC(=O)CCc2nc3ccccc3c(=O)[nH]2)cc1`, the pEC50 at Tankyrase is 6.49.

Consider `COc1ccc(C(=O)C2CCN(C(=O)CCCc3nc4c(cnn4C)c(=O)[nH]3)CC2)cc1F` [Compound C42, 6-{4-[4-(3-Fluoro-4-methoxy-benzoyl)-piperidin-1-yl]-4-oxo-butyl}-1-methyl-1,5-dihydro-pyrazolo[3,4-d]pyrimidin-4-one], for which the concentration in solution in “Solubility pH 7.4” (solubility) came to 158 µg/mL (≈ 347 µM). The IC50 on PARP-1 is 12000 nM; at TNKS2 it was under 1e-10 M; on TNKS1 it was 0.12 nM. Also, the microsomal CLint was found to be 51 µL/min/mg in [1] and 16 µL/min/mg in data set [2]. Also, in the data set with Tankyrases, the EC50 turned out to be 4.8e-09 M.
